# From article PMC4736845, “Structural comparison between the open and closed forms of citrate synthase from Thermus thermophilus HB8” (Biophysics and Physicobiology, 2015)
# Target: T1, TtCS (citrate synthase from Thermus thermophilus HB8) (Thermus thermophilus, UniProt Q5SIM6)
# T1 construct: gene TTHA1343; recombinant, E. coli BL21(DE3) pET-3a; no tag stated; 377 residues, Mr 42,304 per subunit; homodimer
# T1 sequence (Q5SIM6 1-377): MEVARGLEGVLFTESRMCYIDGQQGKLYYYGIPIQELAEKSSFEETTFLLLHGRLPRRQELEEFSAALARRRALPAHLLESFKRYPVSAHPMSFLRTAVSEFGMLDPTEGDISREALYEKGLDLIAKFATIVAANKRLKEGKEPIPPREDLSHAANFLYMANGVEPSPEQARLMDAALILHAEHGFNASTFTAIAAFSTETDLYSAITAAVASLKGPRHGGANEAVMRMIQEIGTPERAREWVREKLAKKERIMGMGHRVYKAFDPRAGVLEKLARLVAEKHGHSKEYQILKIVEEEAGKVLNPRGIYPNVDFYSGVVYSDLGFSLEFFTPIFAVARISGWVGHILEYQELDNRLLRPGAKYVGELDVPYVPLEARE
# Test: X-ray crystal structure, […] Å, co-crystallised
# Assay type: binding
# Conditions: closed forms (fully and partially closed)
SMILES,"X-ray crystal structure, 2.3 Å, co-crystallised (ternary complex with citrate, same crystallisation, active site just above citrate)","X-ray crystal structure, 2.3 Å, co-crystallised (ternary complex with CoA, 10 mM Na-citrate, 10 mM CoA, 100 mM KCl, then 1.5 M lithium sulfate, 100 mM Na-citrate pH 5.8, 20°C, active site)"
CC(C)(COP(=O)(O)OP(=O)(O)OC[C@H]1O[C@@H](n2cnc3c(N)ncnc32)[C@H](O)[C@@H]1OP(=O)(O)O)[C@@H](O)C(=O)NCCC(=O)NCCS [CoA],CoA is bound at the upper part of the active site just above the citrate-binding site,–
O=C(O)CC(O)(CC(=O)O)C(=O)O [citrate],–,Citrate is bound deep in the cleft of the active site by hydrogen bonds
